Experimental data as given in PMC11242993, “Evaluation of the Therapeutic Potential of Sulfonyl Urea Derivatives as Soluble Epoxide Hydrolase (sEH) Inhibitors” (Molecules, 2024).
pIC50: −log10 of the molar value.

How the values were obtained:
[1] = biological target: T1, human recombinant sEH (Homo sapiens, UniProt P34913); assay: Fluorescence-based sEH activity assay (PHOME substrate), human enzyme; format: biochemical; details: for pIC50: dose-dependent assay, read-out: Human sEH Inhibition IC50
T1 construct: purchased Cayman Chemical 10011671
T1 sequence (P34913 1-555): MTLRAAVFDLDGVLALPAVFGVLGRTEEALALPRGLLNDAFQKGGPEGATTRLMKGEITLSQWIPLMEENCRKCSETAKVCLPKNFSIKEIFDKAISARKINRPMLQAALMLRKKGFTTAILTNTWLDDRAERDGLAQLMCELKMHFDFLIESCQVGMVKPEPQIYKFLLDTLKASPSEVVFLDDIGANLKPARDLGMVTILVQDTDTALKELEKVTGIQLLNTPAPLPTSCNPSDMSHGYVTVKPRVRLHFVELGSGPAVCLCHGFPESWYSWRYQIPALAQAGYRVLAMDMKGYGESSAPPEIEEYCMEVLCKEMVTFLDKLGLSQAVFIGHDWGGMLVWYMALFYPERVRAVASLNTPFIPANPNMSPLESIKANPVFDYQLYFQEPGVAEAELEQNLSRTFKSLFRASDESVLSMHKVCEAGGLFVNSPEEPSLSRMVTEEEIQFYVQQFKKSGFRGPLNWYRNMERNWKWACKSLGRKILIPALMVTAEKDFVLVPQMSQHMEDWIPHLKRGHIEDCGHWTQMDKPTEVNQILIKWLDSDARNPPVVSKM
Protocol: A fluorescence-based sEH activity assay provided a convenient method for screening human epoxide hydrolase inhibitors. The assay utilized (3-Phenyl-oxiranyl)-acetic acid cyano-(6-methoxy-naphthalen-2-yl)-methyl ester (PHOME) as a substrate. […] The inhibitory function of the compounds on sEH activity was tested as detailed in the product manual from Cayman Chemical. Briefly, 3 mL sEH assay buffer (10×) was diluted with 27 mL HPLC-grade water. This final assay buffer, 25 mM bis-tris (pH 7.0), was used in the assay and for the dilution of the soluble epoxide hydrolase (sEH) enzyme. Amounts of 12 μL each of human and mouse recombinant sEH were thawed on ice. Prior to assaying, 588 μL cold assay buffer was added directly to the enzyme vial. An amount of 190 μL assay buffer and 5 μL solvent (40% DMSO in assay buffer) were added to the background wells. In the 100% initial activity wells, 185 μL assay buffer, 5 μL sEH, and 5 μL solvent were added. In inhibitor wells, 185 μL assay buffer, 5 μL solution of the synthesized compounds, and 5 μL of recombinant enzyme solution were added.
Average fluorescence (AF) of the background wells and 100% initial activity in the wells and of each of the inhibitors were determined. The background AF was subtracted from the 100% initial activity and inhibitor AFs. The % sEH activity is calculated as (inhbitited AF/% 100 initial activity) × 100.
Multiple concentrations of the inhibitors were tested followed by plotting of the percent activity as a function of inhibitor concentration to determine the IC50 values.

[2] = Plasma protein binding (equilibrium dialysis), human; format: in vitro ADME; details: for fraction unbound at 5 h, 1 μM: plasma (non-diluted), pH 7.4, read-out: Plasma Protein Binding Human % of Bound Comp
Protocol: The assay was performed in a multiple-use 96-well dialysis unit (HTD96b dialyzer). Each individual well unit consisted of 2 chambers separated by a vertically aligned dialysis membrane of predetermined pore size (MWCO 12–14 kDa). An amount of 120 μL of non-diluted plasma spiked with the compound (1 μM, final DMSO concentration 1%) was added to one chamber, and the same volume of PBS buffer with pH 7.4 was added to the other chamber. The HTD96b dialyzer was covered with adhesive sealing film and incubated at 37 °C and shaken at 100 rpm for 5 h. For sample preparation, an aliquot of the content of each chamber was mixed with the same volume of the blank opposite matrix. To define the non-specific loss of the compound during this assay, a standard solution was created by mixing an aliquot of spiked plasma with a blank buffer without dialysis. Two aliquots of the standard solution were incubated at 37 °C and shaken at 100 rpm for 5 h (recovery samples). The other two aliquots were immediately diluted with acetonitrile and stored at 4 °C until LC–MS/MS analysis (stability samples). All samples were diluted 5-fold with 100% methanol with subsequent plasma protein sedimentation by centrifuging at 6000 rpm for 5 min. Supernatants were analyzed using the HPLC system coupled with a tandem mass spectrometer.

[3] = test system: Caco-2 cells; assay: Caco-2 permeability; format: in vitro ADME
Protocol: Caco-2 cells were cultured in 75 cm^2 flasks to 80–90% confluence according to the ATCC and Millipore recommendations in a humidified atmosphere at 37 °C and 5% CO2. Cells were detached with a trypsin/EDTA solution, resuspended in the complete medium containing DMEM high glucose ([…]) with L-glutamine (4 mM) supplemented with 10% heat-inactivated Fetal Bovine Serum, 1% non-essential amino acids, and 730 nM puromycin, and seeded at a density of 5 × 10^5 cells in a 75 cm^2 flask. After 5 days, cells were trypsinized and resuspended in the complete medium to a final concentration of 600 × 10^3 cells/mL. Of the cell suspension, 400 µL was added to each well of an HTS 24-Multiwell Insert System and 25 mL of prewarmed complete medium was added to the feeder tray. Caco-2 cells were incubated in the Multiwell Insert System for 6–10 days before the transport experiments. The medium in the filter plate and feeder tray was refreshed every other day. Prior to the transport experiment, the integrity of the monolayer was verified by measuring the transepithelial electrical resistance (TEER) for every well using a Millicell-ERS system ohm meter. The final TEER values were within the range of 150–600 Ω × cm^2, as required for the assay conditions. The 24-well insert plate was removed from its feeder plate and placed in a new sterile 24-well transport analysis plate. The inserts were washed with PBS after medium aspiration. Ketoprofen, atenolol, digoxin, and quinidine were used as reference compounds.
To determine transport rates in the basolateral (B)-to-apical (A) direction, 1000 μL of the test compound solutions was added into the wells of the transport analysis plate, and the wells in the filter plate were filled with 300 μL of buffer (apical compartment).
The effect of the inhibitor on the Pgp-mediated transport of the tested compounds was assessed by determining the bidirectional transport in the presence or absence of verapamil. The Caco-2 cells were preincubated for 30 min at 37 °C with 100 μM of verapamil in both apical and basolateral compartments. After removal of the preincubation medium, the test compounds with verapamil (100 μM) in transport buffer were added in donor wells, while the receiver wells were filled with the appropriate volume of transport buffer with 100 μM of verapamil. The final amounts of test and reference compounds were 10 μM each. The plates were incubated for 90 min at 37 °C under continuous shaking at 100 rpm. Aliquots of 75 μL were taken from the donor and receiver compartments for LC–MS/MS analysis. All samples were mixed with 2 volumes of acetonitrile followed by protein sedimentation by centrifuging at 10,000 rpm for 10 min. Supernatants were analyzed using the HPLC system coupled with a tandem mass spectrometer.

SMILES | Human sEH % Inhibition [1] | pIC50 [1] | compound stability in plasma during dialysis [2] | fraction unbound at 5 h, 1 μM [2] | brain penetrability judged from Caco-2 permeability [3] | Pgp substrate status from Caco-2 efflux ratio [3]
O=C(NC12CC3CC(CC(C3)C1)C2)NS(=O)(=O)c1ccc2ccccc2c1 [Compound 4l] | 96.79% | 8.92 | 99% | < 0.001 | brain penetrable | –
O=C(NC12CC3CC(CC(C3)C1)C2)NS(=O)(=O)c1ccc(OC(F)(F)F)cc1 [Compound 4f] | 96.05% | 8.77 | 99% | < 0.001 | brain penetrable | not Pgp substrates
